Assays:
Experiment in all cases: relative viability (nuclei count vs DMSO), 5 days (fraction); higher = more cells survive
[1] = compound: C1/C(=C\C2=CC=CS2)/C(=O)/C(=C/C3=CC=CS3)/C1 + Cc1cc(Nc2cc(N3CCN(C)CC3)nc(Sc3ccc(NC(=O)C4CC4)cc3)n2)n[nH]1 [Tozasertib] (partner 0.1 µM)
Summary of the method: (§1)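 Relative viability was taken as the ratio of nuclei in treated wells to nuclei in vehicle wells. Lung cancer cell lines in 1536-well plates received compounds by pin tool one day after seeding, either one drug alone or a fixed anchor-drug dose plus five library-drug doses (not always all listed) in √10 steps. Nuclei were counted on 4× images after 5 days of treatment, and values are medians of duplicate plates.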

[2] = compound: C1/C(=C\C2=CC=CS2)/C(=O)/C(=C/C3=CC=CS3)/C1 + O=C(CCCCCCC(=O)Nc1ccccc1)NO [Vorinostat] (partner 1 µM)
Summary of the method: as §1

[3] = compound: C[C@]12O[C@H](C[C@]1(O)CO)n1c3ccccc3c3c4c(c5c6ccccc6n2c5c31)CNC4=O [Lestaurtinib] + N=C(N)NC(=N)NCCc1ccccc1 [Phenformin] (partner 250 µM)
Summary of the method: as §1

[4] = compound: C1=CC(=CC=C1C2=CC(=C(S2)NC(=O)N)C(=O)N)F [TPCA-1] + C[C@]1(O)C[C@@H](c2nc(-c3ccc4ccc(-c5ccccc5)nc4c3)c3c(N)nccn32)C1 [Linsitinib] (partner 1 µM)
Summary of the method: as §1

Row | Cell Line | relative viability ([1]; first compound 0.2 µM) | relative viability ([1]; first compound 0.6325 µM) | relative viability ([1]; first compound 2 µM) | relative viability ([1]; first compound 6.325 µM) | relative viability ([1]; first compound 20 µM) | relative viability ([2]; first compound 0.2 µM) | relative viability ([2]; first compound 0.6325 µM) | relative viability ([2]; first compound 2 µM) | relative viability ([2]; first compound 6.325 µM) | relative viability ([2]; first compound 20 µM) | relative viability ([3]; first compound 0.005 µM) | relative viability ([3]; first compound 0.01581 µM) | relative viability ([3]; first compound 0.05 µM) | relative viability ([3]; first compound 0.1581 µM) | relative viability ([3]; first compound 0.5 µM) | relative viability ([4]; first compound 0.04 µM) | relative viability ([4]; first compound 0.1265 µM) | relative viability ([4]; first compound 0.4 µM) | relative viability ([4]; first compound 1.265 µM) | relative viability ([4]; first compound 4 µM)
1 | NCI-H1437 | 0.408 | 0.413 | 0.452 | 0.273 | 0.407 | 0.91 | 0.853 | 0.837 | 0.701 | 0.866 | 0.343 | 0.349 | 0.241 | 0.292 | 0.16 | 1.17 | 0.936 | 1.02 | 0.926 | 0.754
2 | NCI-H1651 | 0.731 | 0.671 | 0.837 | 0.596 | 0.718 | 0.553 | 0.63 | 0.694 | 0.509 | 0.558 | 0.326 | 0.429 | 0.295 | 0.329 | 0.184 | 1.13 | 0.891 | 0.985 | 0.947 | 0.974
3 | NCI-H1666 | 0.574 | 0.658 | 0.609 | 0.538 | 0.538 | 1.09 | 1.02 | 0.874 | 0.893 | 0.928 | 0.613 | 0.617 | 0.668 | 0.561 | 0.389 | 0.756 | 0.688 | 0.785 | 0.993 | 0.723
4 | NCI-H1734 | 0.282 | 0.293 | 0.263 | 0.167 | 0.287 | 0.82 | 0.875 | 0.837 | 0.745 | 0.865 | 0.385 | 0.391 | 0.255 | 0.208 | 0.18 | 0.992 | 0.729 | 0.878 | 0.829 | 0.89
5 | NCI-H1755 | 0.64 | 0.583 | 0.582 | 0.539 | 0.549 | 0.725 | 0.857 | 0.745 | 0.777 | 0.716 | 0.663 | 0.648 | 0.462 | 0.336 | 0.287 | 0.978 | 0.941 | 1 | 1 | 0.852
6 | NCI-H1793 | 0.394 | 0.297 | 0.347 | 0.338 | 0.258 | 1.02 | 0.753 | 0.892 | 0.654 | 0.734 | 0.353 | 0.447 | 0.296 | 0.436 | 0.3 | 1.05 | 0.674 | 0.934 | 0.683 | 0.727
7 | NCI-H1915 | 0.428 | 0.456 | 0.447 | 0.422 | 0.446 | 0.568 | 0.546 | 0.551 | 0.433 | 0.528 | 0.349 | 0.37 | 0.311 | 0.34 | 0.204 | 1.16 | 1.12 | 1.15 | 1.04 | 1.03
8 | NCI-H1944 | 0.282 | 0.248 | 0.259 | 0.241 | 0.236 | 0.619 | 0.535 | 0.559 |  | 0.528 | 0.194 | 0.209 | 0.164 | 0.133 | 0.132 | 1.24 | 1.13 | 1.2 | 1.13 | 0.987
9 | NCI-H1975 | 0.71 | 0.742 |  | 0.678 | 0.699 | 0.814 | 0.671 | 0.774 | 0.689 | 0.731 | 0.464 | 0.44 | 0.363 | 0.353 | 0.275 | 0.93 | 0.916 | 0.971 | 0.918 | 0.946
10 | NCI-H1993 | 0.567 | 0.556 | 0.594 | 0.559 | 0.506 | 0.729 | 0.701 | 0.972 | 0.702 | 0.561 | 0.559 | 0.547 | 0.527 | 0.457 | 0.486 | 0.711 |  | 0.748 | 0.686 | 0.622
11 | NCI-H2009 | 0.764 | 0.814 | 0.752 | 0.657 | 0.81 | 0.721 | 0.733 | 0.729 |  | 0.68 | 0.51 | 0.46 | 0.437 | 0.465 | 0.235 | 1.25 | 1.18 | 1.11 | 1.19 | 1.06
12 | NCI-H2023 | 0.428 | 0.507 | 0.397 | 0.346 | 0.259 | 0.722 | 0.67 | 0.727 | 0.582 | 0.539 | 0.451 | 0.451 | 0.343 | 0.344 | 0.144 | 0.706 | 0.721 | 0.765 | 0.559 | 0.409
13 | NCI-H2085 | 0.867 | 0.898 | 0.792 | 0.799 | 0.718 | 0.739 | 0.808 | 0.857 | 0.7 | 0.715 | 0.716 | 0.664 | 0.602 | 0.65 | 0.492 | 0.901 | 0.859 | 1 | 0.912 | 0.926
14 | NCI-H2087 | 0.404 | 0.257 | 0.257 | 0.201 | 0.225 | 0.623 | 0.656 | 0.7 | 0.616 | 0.361 | 0.462 | 0.44 | 0.43 | 0.416 | 0.344 | 0.989 | 0.938 | 1.03 | 0.836 | 0.553
15 | NCI-H2126 | 0.888 | 0.831 | 0.878 | 0.814 | 0.798 | 0.742 | 0.774 | 0.809 | 0.717 | 0.781 | 0.525 | 0.565 | 0.482 | 0.412 | 0.326 | 0.752 | 0.657 | 0.709 | 0.724 | 0.595
16 | NCI-H2228 | 0.239 | 0.235 | 0.246 | 0.145 | 0.261 | 0.668 | 0.563 | 0.764 | 0.396 | 0.504 | 0.235 | 0.215 | 0.237 | 0.218 | 0.127 | 0.789 | 0.723 | 0.627 | 0.825 | 0.455

Reference: the supplement of paper PMC10307832
